Experimental data from patent EP0874630B1, “TOP[…] POISON AND BIS-DIOXY[…] COMBINATION THERAPY” (priority 1996, dated 1997).
Several values for one entry are separate records, joined by “and”; a condition that tells them apart may be missing. Identical values can stand only once. Like-named read-outs stand apart in the source and are kept apart here.

What was measured:
mice [1] = settings: for increase in LD10 enabled by ICRF-187: LD10 of the topoisomerase II poison with ICRF-187 versus alone, mice
Text: Calculation of LD10 and LD50 using the maximum likelihood estimation. The 6 experiments in Table 2 are included in the computations.

L1210 leukemia cells = test: Therapy study, mice inoculated i.p. with L1210 leukemia cells (increase in life span); format: in vivo
Method: (§1) In therapy studies, mice were inoculated i.p. with either 10^5 L1210 leukemia cells or 15x10^6 Ehrlich's ascites tumour cells on day 0 and treated with drugs i.p. on day 4 after inoculation. The brain tumour model consisted of 10^4 L1210 cells or 15x10^4 Ehrlich's ascites tumour cells in a volume of 30 µl of isotonic sodium chloride inoculated on day 0 into the temporal region followed by treatment i.p. on day 2, 3 or 4 after inoculation.
(§2) 1×10^5 L1210 tumour cells or 15×10^6 Ehrlich's ascites tumour cells were inoculated i.p. on day 0 and mice were treated i.p. on day 4. The Mann Whitney test was used for statistical evaluation.

mice [2] = settings: mouse
Method: First generation hybrids of female random bred Swiss mice and male inbred DBA (NDF1-hybrid) mice were used as previously described (5). The mice weighed between 19 and 21 g at the start of the experiments. […] Lethality was recorded and surviving mice were sacrificed after 60 days. Toxicity was evaluated by weight and leucocyte counts. For weight evaluations mice were treated with drugs, marked and weighed for eleven consecutive days. Blood for leucocyte counts was obtained from a tail vein and counted in a hemocytometer on days 3, 5 and 7 after treatment.

[3] = tested on: Ehrlich's ascites tumour cells; test: Therapy study, mice inoculated i.p. with Ehrlich's ascites tumour cells (increase in life span); format: in vivo
Method: as §1, §2

mice [4] = test: Lethality in healthy mice after drugs given once i.p., with or without ICRF-187 pretreatment (survivors/treated); format: in vivo; settings: for survivors/treated: compiled data from two experiments
Method: Toxicity was evaluated by weight and leucocyte counts.
The compiled data from two experiments showing that paclitaxel induced lethality cannot be protected by pretreamtment with ICRF-187. Groups of 11 mice were treated once i.p. with or without pretreatment with ICRF-187.

[5] = NDF1 hybrid (female Swiss x male DBA), mouse, in vivo, ip, 60 days

## C[C@@H](CN1CC(=O)NC(=O)C1)N1CC(=O)NC(=O)C1 [ICRF-187, (+)-1,2-bis(3,5-dioxopiperazinyl-1-yl)propane]
Mice [1]; [5]
  LD10: 500 mg/kg
  LD90: 1500 mg/kg
L1210 leukemia cells; ICRF-187 alone, mice inoculated i.p. with L1210 tumour cells
  antitumour effect: no antitumour effect
Mice [2]; NDF1 hybrid (female Swiss x male DBA), in vivo, 100 mg/kg, 60 days
  survivors/treated: 11/11
Mice [2]
  ICRF-187 mediated protection in vivo: not obtained
[3]; ICRF-187 alone, mice inoculated i.p. with Ehrlich's ascites tumour
  antitumour effect: no antitumour effect

## CC(=O)O[C@H]1C(=O)[C@@]2(C)[C@H]([C@H](OC(=O)c3ccccc3)[C@]3(O)C[C@H](OC(=O)[C@H](O)[C@@H](NC(=O)c4ccccc4)c4ccccc4)C(C)=C1C3(C)C)[C@]1(OC(C)=O)CO[C@@H]1C[C@@H]2O [Paclitaxel, paclitaxel]
Mice [4]; Paclitaxel 30 mg/kg alone
  Survivors/ treated, %: 100%
  survivors/treated: 22/22
Mice [4]; Paclitaxel 40 mg/kg alone
  Survivors/ treated, %: 55%
  survivors/treated: 12/22
Mice [4]; Paclitaxel 50 mg/kg alone
  Survivors/ treated, %: 0%
  survivors/treated: 0/22

## COc1cc([C@@H]2c3cc4c(cc3[C@@H](O[C@@H]3O[C@@H]5CO[C@@H](C)O[C@H]5[C@H](O)[C@H]3O)[C@H]3COC(=O)[C@H]23)OCO4)cc(OC)c1O [etoposide]
Mice [1]
  increase in LD10 enabled by ICRF-187: 3.6 fold
Mice [1]; dose of etoposide killing 10% of the mice, maximum likelihood estimation, 6 experiments of Table 2, combination with 125 mg/kg ICRF-187, 125 mg/kg
  LD10: 34 mg/kg and 33 mg/kg
Mice [1]; dose of etoposide killing 10% of the mice, maximum likelihood estimation, 6 experiments of Table 2, combination with 125 mg/kg ICRF-187, listed as VP-16, 125 mg/kg
  LD10: 34.0 mg/kg
Mice [1]; maximum likelihood estimation on the 6 experiments of Table 2, combination with 125 mg/kg ICRF-187
  log LD10: 1.531
L1210 leukemia cells; Etoposide 33 mg/kg i.p. on day 4, 1×10^5 L1210 tumour cells i.p. on day 0
  ILS(%): 113% and 100% and 88%
L1210 leukemia cells; Table 5B, Etoposide 33 mg/kg, L 1210 tumour cells i.p.
  increased life span, ILS(%) (etoposide alone set to 100): 100%
[3]; Etoposide 33 mg/kg i.p. on day 4, 15×10^6 Ehrlich's ascites tumour cells i.p. on day 0
  ILS(%): 53% and 40% and 35%
[3]; Table 5A, Etoposide 33 mg/kg, Ehrlich's tumour cells i.p.
  increased life span, ILS(%) (etoposide alone set to 100): 100%

## COc1cc([C@@H]2c3cc4c(cc3[C@@H](O[C@@H]3O[C@@H]5CO[C@@H](c6cccs6)O[C@H]5[C@H](O)[C@H]3O)[C@H]3COC(=O)[C@H]23)OCO4)cc(OC)c1O [teniposide]
Mice [1]
  increase in LD10 enabled by ICRF-187: 3.4 fold
